Measured values published in publication PMC6977461 (Chemical Science, 2019).
*1 amine or outer side, *2 acyl side, *3 side chain or, on linkers, in order; H or OH if unused. The star is where a group is joined. X1 = C[C@@H](CN*)NC(=O)[C@@H](N)Cc1c[nH]cn1; CO = O=C([*:1])[*:2]

Key:
[1] = mouse plasma degradation assay (Methods MP1-MP3); assay type: in vitro ADME; settings: mouse plasma diluted 1/1 with PBS; mouse plasma/PBS pH 7.4 (1/1), 5 µM, 37 °C, acetonitrile quench, LC-MS extracted ion chromatogram; MP1 for 2-8, MP2 for 9-11, MP3 for 12-14; mean, n = 3; read-out: Mouse plasma t1/2 (converted)
Experimental: The oligomer was then diluted 1/50 with a solution of plasma/PBS pH 7.4 (1/1) to afford a final concentration of 5μM and incubated at 37°C. […] (t = 0 min was determined using the reaction without plasma). The samples were frozen at -80°C before analysis. […] The supernatant was analyzed by LC-MS. The time course of oligomer degradation was determined by integrating the area of the peak in the extracted ion chromatogram. […] The oligomer was then diluted 1/50 with a solution of plasma/PBS pH 7.4 (1/1) to afford a final concentration of 5μM and incubated at 37°C. […] The oligomer was then diluted 1/50 with a solution of plasma/PBS pH 7.4 (1/1) to afford a final concentration of 5μM and incubated at 37°C. […] Animals. […] A standard chow diet (RM1 (E) 801492, SDS) and tap water were provided ad libitum. All animal protocols done by Physiogenex S.A.S were reviewed and approved by the local (Comité […] national ([…]

C57BL/6J mice = assay: dose-response study in healthy mice, IPGTT 6 h after agonist; assay type: in vivo, mouse
Experimental: Mice were lightly fasted (4 hours) before IP administration of varying doses of each agonist or vehicle (100 µL saline). After a further 6 hours, blood glucose was measured (GlucoRx) from the tail followed by IP administration of 2 g/kg 20% glucose. Blood glucose was monitored at 20, 40 and 60 minute time- […]
performed on the area-under-curve for each set of data.
Study in db/db mice (15 days).
After the acclimation period of 5 days, male db/db mice 8 weeks old (Charles River laboratories) were randomized into groups (n=10) according to their body weight, HOMA-IR and HbA1C measured after an overnight fast and 8 non diabetic mice were excluded. Mice were chronically treated during 15 days via s.c. route (once daily) at around 8AM with the vehicle or with 100 µg kg-1 (25 nmol kg-1) of the oligomers. Formulation: 20 µg mL-1 in PBS 1×. On the 7th day of treatment, fed blood glucose was […]
On the 12th day of treatment, mice were fasted 6 hours and an OGTT (glucose 1 g kg-1 p.o.) was performed 6 hours (2 PM) after the dosing. Blood glucose was […]
On the 15th day of treatment, mice were fasted 6 hours and an ITT (insulin 2 U kg-1 i.p.) was performed 6 hours (2 PM) after the dosing. […]
samples were collected for measuring HbA1c just before the start of the treatments and at the end of […]
Fifteen mice (male C57BL/6J mice (Janvier Labs, France) 9 weeks old, 20-25 g) were treated with GLP-1 analogues via i.v. injections (2 mg kg-1) formulated at 1 mg mL-1 in PBS 1×. After different time points mice were sacrificed and blood sample were collected. The plasma was separated by centrifugation and the samples were frozen at -80°C before analysis. A volume of 400 µL of each sample of plasma was mixed with 1 ml of acetonitrile to precipitate the protein and extract the compound. The sample were then vortexed and centrifuged (15 000 × g, 5 min, 16 °C) to sediment the precipitated protein.
The supernatant was analysed by LC-MS/MS using a UHPLC coupled to LC-MS 8030 Shimadzu triple […]
Molecular dynamics simulation of GLP-1R in complex with ureidopeptide 3 […]
Human GLP-1R which shares […]

GLP-1R = GLP-1R (Homo sapiens, UniProt P43220); assay: signal bias, cAMP vs β-arrestin-2, PathHunter CHO-GLP-1R cells (operational model); assay type: cell-based; design: host or cells: PathHunter CHO-GLP-1R-βarr2 cells; settings: relative to GLP-1-NH2 (2), n = 5
GLP-1R, sequence (P43220 24-463): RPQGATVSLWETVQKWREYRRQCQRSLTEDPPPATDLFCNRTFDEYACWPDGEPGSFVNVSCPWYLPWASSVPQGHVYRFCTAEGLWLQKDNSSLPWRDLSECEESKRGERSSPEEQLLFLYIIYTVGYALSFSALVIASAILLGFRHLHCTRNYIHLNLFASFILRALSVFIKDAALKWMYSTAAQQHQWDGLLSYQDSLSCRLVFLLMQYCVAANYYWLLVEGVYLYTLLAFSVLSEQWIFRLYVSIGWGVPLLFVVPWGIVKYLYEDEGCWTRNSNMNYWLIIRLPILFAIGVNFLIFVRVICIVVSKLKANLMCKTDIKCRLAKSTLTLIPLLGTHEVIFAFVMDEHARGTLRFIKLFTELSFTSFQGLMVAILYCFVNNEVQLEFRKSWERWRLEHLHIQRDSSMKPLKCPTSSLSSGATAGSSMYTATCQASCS
Experimental: signal measured at 665 nm by that measured at 620 nm (ratio). The results are expressed as a percent […]
tested in each experiment at several concentrations to generate a concentration-response curve from which its EC50 value and SE are calculated using GraphPad Prism.
In vitro pharmacology on immortalised CHO-GLP-1R cells (EC50: Method C3) PathHunter CHO-GLP-1R cells were stimulated for 30 min at 37°C with indicated concentration of agonist in serum free medium without phosphodiesterase inhibitors. The reaction was terminated by addition of cAMP detection reagents (cAMP Dynamic 2, Cisbio) and read by HTRF.
β-arrestin-2 recruitment assay […]
agonist in serum free medium. The reaction was terminated by addition of PathHunter detection reagents (DiscoverX) and luminescent signal recorded.
Calculation of signal bias
Biased signalling was quantified using a modified form of the operational model.[6] LogR values were calculated for each ligand in each assay, and ∆LogR were determined by subtracting from the […]
Bias was then determined as ∆∆LogR by subtracting ∆LogR for […]

mouse GLP-1 receptor = target: T1, mouse GLP-1 receptor (Mus musculus, UniProt O35659); assay: cAMP production in βTC6 cells expressing GLP-1R endogenously (Method C2); assay type: cell-based
T1 construct: βTC6 cells which express GLP-1R endogenously; host or cells: βTC6 cells
T1 sequence (O35659 22-463): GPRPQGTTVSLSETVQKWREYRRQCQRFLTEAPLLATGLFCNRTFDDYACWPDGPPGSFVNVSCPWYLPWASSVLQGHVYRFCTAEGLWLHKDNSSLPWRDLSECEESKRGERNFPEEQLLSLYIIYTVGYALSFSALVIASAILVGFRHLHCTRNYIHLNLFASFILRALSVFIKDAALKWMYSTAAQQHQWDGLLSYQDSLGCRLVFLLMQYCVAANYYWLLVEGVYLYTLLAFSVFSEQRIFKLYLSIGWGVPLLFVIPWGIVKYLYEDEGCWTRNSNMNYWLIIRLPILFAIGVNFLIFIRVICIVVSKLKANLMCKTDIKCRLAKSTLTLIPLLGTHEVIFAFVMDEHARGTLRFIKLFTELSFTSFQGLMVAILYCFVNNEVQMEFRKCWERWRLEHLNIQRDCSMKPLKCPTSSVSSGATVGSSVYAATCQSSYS
Experimental:  HEK-293T cells (Multispan inc., lot#.DC1267-062017) were suspended in cell culture media
(DMEM 1X + GlutaMAX (Gibco 31966-021)) complemented with FBS 10% (Sigma Aldrich
 βTC6 cells were suspended in HBSS buffer (Invitrogen) complemented with 20 mM HEPES (pH
In vitro pharmacology on HEK-293T cells (EC50: Method C1)
cells (Multispan inc., lot#.DC1267-062017) was determined by measuring their effects on cAMP
production using the HTRF detection method (performed by UREkA SARL). The cells were distributed
in 384-well microplates at a density of 1.0x10^4 cells/well. Stock solutions of the test compounds or the
reference agonist were prepared at a concentration of 1 mM in DMSO. Then, compounds to be tested
were diluted in cell culture media and transferred to the plate containing the cells to reach final assay

INS-1 832/3 cells = assay: insulin secretion in vitro in INS-1 832/3 cells; assay type: cell-based; settings: 16 h stimulation at 11 mM glucose, n = 5, versus non-ureido parents
[2] = healthy C57BL/6J mice, 0.01 to 10 nmol kg-1 i.p., IPGTT 6 h after dose, 3-parameter fit of AUC, n = 8

## {X1-CO}-EGTFTSDLSKQLEEEAVRLFIEWLKNGGPSSGAPPSKKKKKK-NH2 [compound 14]
[1]
  half-life at 5 µM: 6.6 h
C57BL/6J mice; 11 versus exenatide (9), 14 versus LixiL (13)
  improvement of ED50 versus parent peptide: five-fold improvement
C57BL/6J mice; [2]
  ED50 (printed in Fig. 4): 0.47
  ED50 in vivo: 0.46 nmol/kg
GLP-1R
  signal bias (cAMP vs β-arrestin-2): strong preference for cAMP signalling
Mouse GLP-1 receptor; from EC50 in βTC6 cAMP assay, footnote: compare to GLP-1-NH2 (2)
  Potency (%), Table S1: 118%
Mouse GLP-1 receptor; read-out: EC50 (GLP-1R potency), Table S1
  EC50: 0.09 nM
INS-1 832/3 cells
  insulin release in vitro: significantly increased insulin release
